The values that follow come from US20230013602A1, “NOVEL IMIDAZOPYRAZINE DERIVATIVES” (Hoffmann-La Roche Inc., priority 2018, published 2023).

Counter-ions that a name gives are not always drawn.

In this assay the test system is Acinetobacter baumannii ATCC17961. As to the kind of experiment: Antimicrobial susceptibility testing, 90% growth inhibitory concentration (IC90) determination. The assay is classed as cell-based. The conditions noted are these: 90% growth inhibitory concentration, Acinetobacter baumannii ATCC17961, Iso-Sensitest broth, OD 600 nm over 16 h; read-out: ATCC17961 IC90. Here is the method:
The in vitro antimicrobial activity of the compounds was determined according to the following procedure:
The assay used a 10-points Iso-Sensitest broth medium to measure quantitatively the in vitro activity of the compounds against Acinetobacter baumannii ATCC 17978 and Acinetobacter baumannii ATCC17961.
Stock compounds in DMSO were serially twofold diluted (e.g. range from 50 to 0.097 μM final concentration) in 384 wells microtiter plates and inoculated with 49 μl the bacterial suspension in Iso-Sensitest medium to have a final cell concentration of ˜5×10^(5) CFU/ml in a final volume/well of 50 ul/well. Microtiter plates were incubated at 35+2° C.
Bacterial cell growth was determined with the measurement of optical density at X=600 nm each 20 minutes over a time course of 16 h. Growth inhibition was calculated during the logarithmic growth of the bacterial cells with determination of the concentration inhibiting 50% (IC50) and 90% (IC90) of the growth.
Table 1 provides the 90% growth inhibitory concentrations (IC90) in micromoles per liter of the compounds of present invention obtained against the strain Acinetobacter baumannii ATCC17978 and Acinetobacter baumannii ATCC17961.
In the case of `CCc1cc(Nc2nccn3c(-c4ccc(OC)c(F)c4F)cnc23)ccc1C(=O)N[C@@H]1C[C@H]1NC(=O)[C@@H]1C[C@@H](O)CN1` (mixture of isomers) [Example 68, (2S,4R)-N-[(1RS, 2RS)-2-[[4-[[3-(2,3-difluoro-4-methoxy-phenyl)imidazo[1,2-a]pyrazin-8-yl]amino]-2-ethyl-benzoyl]amino]cyclopropyl]-4-hydroxy-pyrrolidine-2-carboxamide], the IC90 – broadly, the concentration needed for an effect of 90% – amounted to 140 nM. Regarding `CCc1cc(Nc2nccn3c(-c4ccc(OC)c(F)c4F)cnc23)ccc1C(=O)NC1CCC1NC(=O)[C@@H]1C[C@@H](O)CN1` (mixture of isomers) [Example 69, (2S,4R)-N-(2-(4-((3-(2,3-difluoro-4-methoxyphenyl)imidazo[1,2-a]pyrazin-8-yl)amino)-2-ethylbenzamido)cyclobutyl)-4-hydroxypyrrolidine-2-carboxamide], the IC90 was determined as 246 nM.

Regarding `CCc1cc(Nc2nccn3c(-c4ccc(OC)c(F)c4F)cnc23)ccc1C(=O)NC1CC1NC(=O)[C@@H]1C[C@@H](O)CN1` (mixture of isomers) [Example 73, (2S,4R)-N-[(cis-1SR,2RS)-2-[[4-[[3-(2,3-difluoro-4-methoxy-phenyl)imidazo[1,2-a]pyrazin-8-yI]amino]-2-ethyl-benzoyl]amino]cyclopropyl]-4-hydroxy-pyrrolidine-2-carboxamide], the IC90 came to 173 nM. For `CCc1cc(Nc2nccn3c(-c4ccc(OC)c(F)c4F)cnc23)ccc1C(=O)N[C@H]1CC[C@H](N)C1` (racemic) [Example 43, rac-N-((1R,3 R)-3-aminocyclopentyl)-4-((3-(2,3-difluoro-4-methoxyphenyl)imidazo[1,2-a]pyrazin-8-yl)amino)-2-ethylbenzamide], the IC90 was 211 nM. For the compound `CCc1cc(Nc2nccn3c(-c4ccc(OC)c(F)c4F)cnc23)ccc1C(=O)NC1CCC(NC(=O)[C@@H](N)CCCNC(=N)N)C1` (mixture of isomers) [Example 46, rac-N-(3-((R)-2-amino-5-guanidinopentanamido)cyclopentyl)-4-((3-(2,3-difluoro-4-methoxyphenyl)imidazo[1,2-a]pyrazin-8-yl)amino)-2-ethylbenzamide bis(2,2,2-trifluoroacetate)], the IC90 came out at 754 nM. For `CCc1cc(Nc2nccn3c(-c4ccc(OC)c(F)c4F)cnc23)ccc1C(=O)NC1CCCN(C(=O)[C@@H](N)CCCNC(=N)N)C1` (mixture of isomers) [Example 48, rac-N-(1-(D-arginyl)piperidin-3-yl)-4-((3-(2,3-difluoro-4-methoxyphenyl)imidazo[1,2-a]pyrazin-8-yl)amino)-2-ethylbenzamide bis(2,2,2-trifluoroacetate)], the IC90 turned out to be 749 nM. `COc1ccc(-c2cnc3c(Nc4ccc(C(=O)N[C@H]5CC[C@H](N)C5)c(C)c4)nccn23)c(F)c1F` (racemic) [Example 54, rac-N-((1R,3R)-3-aminocyclopentyl)-4-((3-(2,3-difluoro-4-methoxyphenyl)imidazo[1,2-a]pyrazin-8-yl)amino)-2-methylbenzamide]: the IC90 was determined as 238 nM. As for `CCc1cc(Nc2nccn3c(-c4ccc(OC)c(F)c4F)cnc23)ccc1C(=O)N[C@@H]1C[C@H]1N` (racemic) [Example 58, rac-N-((1R,2R)-2-aminocyclopropyl)-4-((3-(2,3-difluoro-4-methoxyphenyl)imidazo[1,2-a]pyrazin-8-yl)amino)-2-ethylbenzamide], the figure is 315 nM. Turning to `COc1ccc(-c2cnc3c(Nc4ccc(C(=O)NC5CCCN(C(=O)[C@@H]6C[C@@H](O)CN6)C5)c(C)c4)nccn23)c(F)c1F` (mixture of isomers) [Example 59, rac-4-((3-(2,3-difluoro-4-methoxyphenyl)imidazo[1,2-a]pyrazin-8-yl)amino)-N-(1-((2R,4S)-4-hydroxypyrrolidine-2-carbonyl)piperidin-3-yl)-2-methylbenzamide], the IC90 came out at 294 nM. For the compound `CCc1cc(Nc2nccn3c(-c4ccc(OC)c(F)c4F)cnc23)ccc1C(=O)N[C@@H]1C[C@@H]1N` (racemic) [Example 74, rac-N-((1R,2S)-2-aminocyclopropyl)-4-((3-(2,3-difluoro-4-methoxyphenyl)imidazo[1,2-a]pyrazin-8-yl)amino)-2-ethylbenzamide], the IC90 was 201 nM. As for `CCc1cc(Nc2nccn3c(-c4ccc(OC)c(F)c4F)cnc23)ccc1C(=O)NC1CCCNC1` (stereo not drawn) [Example 41, 4-((3-(2,3-difluoro-4-methoxyphenyl)imidazo[1,2-a]pyrazin-8-yl)amino)-2-ethyl-N-(piperidin-3-yl)benzamide], the figure is 363 nM; as for `CCc1cc(Nc2nccn3c(-c4ccc(OC)c(F)c4F)cnc23)ccc1C(=O)N[C@H]1CC[C@H](N)CC1` [Example 42, trans-N-((1r,4r)-4-aminocyclohexyl)-4-((3-(2,3-difluoro-4-methoxyphenyl)imidazo[1,2-a]pyrazin-8-yl)amino)-2-ethylbenzamide], 260 nM; as for `CCc1cc(Nc2nccn3c(-c4ccc(OC)c(F)c4F)cnc23)ccc1C(=O)NC1CCN(C(=O)[C@@H](N)CCCNC(=N)N)CC1` [Example 44, N-(1-(L-arginyl)piperidin-4-yl)-4-((3-(2,3-difluoro-4-methoxyphenyl)imidazo[1,2-a]pyrazin-8-yl)amino)-2-ethylbenzamide bis(2,2,2-trifluoroacetate)], 847 nM. On to `CCc1cc(Nc2nccn3c(-c4ccc(OC)c(F)c4F)cnc23)ccc1C(=O)N[C@H]1CC[C@H](NC(=O)[C@@H](N)CCCNC(=N)N)CC1` [Example 45, N-((1S,4r)-4-((S)-2-amino-5-guanidinopentanamido)cyclohexyl)-4-((3-(2,3-difluoro-4-methoxyphenyl)imidazo[1,2-a]pyrazin-8-yl)amino)-2-ethylbenzamide bis(2,2,2-trifluoroacetate)], for which the IC90 amounted to 559 nM. The figure for `CCc1cc(Nc2nccn3c(-c4ccc(OC)c(F)c4F)cnc23)ccc1C(=O)N[C@@H]1CCN(C(=O)[C@@H](N)CCCNC(=N)N)C1` [Example 47, N-((R)-1-(L-arginyl)pyrrolidin-3-yl)-4-((3-(2,3-difluoro-4-methoxyphenyl)imidazo[1,2-a]pyrazin-8-yl)amino)-2-ethylbenzamide bis(2,2,2-trifluoroacetate)] is 352 nM; for `CCc1cc(Nc2nccn3c(-c4ccc(OC)c(F)c4F)cnc23)ccc1C(=O)NC1CCCCC1NC(=O)[C@@H]1C[C@@H](O)CN1` (stereo partly drawn) [Example 49, (2S,4R)-N-(2-(4-((3-(2,3-difluoro-4-methoxyphenyl)imidazo[1,2-a]pyrazin-8-yl)amino)-2-ethylbenzamido)cyclohexyl)-4-hydroxypyrrolidine-2-carboxamide dihydrochloride] it is 274 nM; for `COc1ccc(-c2cnc3c(Nc4ccc(C(=O)NC5CCNCC5)c(C)c4)nccn23)c(F)c1F` [Example 50, 4-((3-(2,3-difluoro-4-methoxyphenyl)imidazo[1,2-a]pyrazin-8-yl)amino)-2-methyl-N-(piperidin-4-yl)benzamide] it is 319 nM. In the case of `COc1ccc(-c2cnc3c(Nc4ccc(C(=O)NC5CCCNC5)c(C)c4)nccn23)c(F)c1F` (stereo not drawn) [Example 51, 4-((3-(2,3-difluoro-4-methoxyphenyl)imidazo[1,2-a]pyrazin-8-yl)amino)-2-methyl-N-(piperidin-3-yl)benzamide], the IC90 was 324 nM.

For the compound `COc1ccc(-c2cnc3c(Nc4ccc(C(=O)N[C@H]5CC[C@H](N)CC5)c(C)c4)nccn23)c(F)c1F` [Example 52, rac-N-((1r,4r)-4-aminocyclohexyl)-4-((3-(2,3-difluoro-4-methoxyphenyl)imidazo[1,2-a]pyrazin-8-yl)amino)-2-methylbenzamide], the IC90 was 243 nM. Turning to `CCc1cc(Nc2nccn3c(-c4ccc(OC)c(F)c4F)cnc23)ccc1C(=O)N[C@H]1CCC[C@H]1NC(=O)[C@@H]1C[C@@H](O)CN1` [Example 53, (2S,4R)-N-((1R, 2S)-2-(4-((3-(2,3-difluoro-4-methoxyphenyl)imidazo[1,2-a]pyrazin-8-yl)amino)-2-ethylbenzamido)cyclopentyl)-4-hydroxypyrrolidine-2-carboxamide], the IC90 turned out to be 987 nM. Consider `COc1ccc(-c2cnc3c(Nc4ccc(C(=O)N[C@H]5CCNC5)c(C)c4)nccn23)c(F)c1F` [Example 55, (S)-4-((3-(2,3-difluoro-4-methoxyphenyl)imidazo[1,2-a]pyrazin-8-yl)amino)-2-methyl-N (pyrrolidin-3-yl)benzamide], for which the IC90 is 236 nM. Regarding `COc1ccc(-c2cnc3c(Nc4ccc(C(=O)NC5CNC5)c(C)c4)nccn23)c(F)c1F` [Example 56, N-(azetidin-3-yl)-4-((3-(2,3-difluoro-4-methoxyphenyl)imidazo[1,2-a]pyrazin-8-yl)amino)-2-methylbenzamide], the IC90 was 279 nM.

For the compound `COc1ccc(-c2cnc3c(Nc4ccc(C(=O)N[C@H]5C[C@H](N)C5)c(C)c4)nccn23)c(F)c1F` [Example 57, rac-N-((1r,3r)-3-aminocyclobutyl)-4-((3-(2,3-difluoro-4-methoxyphenyl)imidazo[1,2-a]pyrazin-8-yl)amino)-2-methylbenzamide], the IC90 was 247 nM. Turning to `COc1ccc(-c2cnc3c(Nc4ccc(C(=O)N[C@H]5CC[C@@H](NC(=O)C(C)C)CC5)c(C)c4)nccn23)c(F)c1F` [Example 60, rac-4-((3-(2,3-dif!uoro-4-methoxyphenyl)imidazo[1,2-a]pyrazin-8-yl)amino)-N-((1s,4s)-4-isobutyramidocyclohexyl)-2-methylbenzamide], the IC90 came to 189 nM.
